The values below come from US10787452B2 (Vertex Pharmaceuticals Incorporated, priority 2012, dated 2020).

The assay deals with HCT116 colorectal cancer cells. In words: Cisplatin sensitization assay (96 h cell viability MTS).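 Further: compound concentration needed to lower the Cisplatin-alone IC50 by a set fold.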 It counts as cell-based. Conditions: 96 h MTS, compound plus Cisplatin. In outline: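 Test compound and cisplatin were added together as a full matrix of 2-fold serial dilutions, each from a top final concentration of 10 μM. Cells were incubated 96 h at 37° C in 5% CO2, then viability was read by MTS after a further 1 h incubation.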

In the case of `Nc1nn2cc(Cl)cnc2c1C(=O)Nc1cnccc1O[C@@H]1CCNC1` [I-O-77, (R)-2-amino-6-chloro-N-(4-(pyrrolidin-3-yloxy)pyridin-3-yl)pyrazolo[1,5-a]pyrimidine-3-carboxamide], the “Cisplatin Sensitization Assay” value is “++ (Compounds with a Cisplatin sensitization value >0.02 μM but <0.2 μM are marked with “++.”)”. Consider `Nc1nn2cc(F)cnc2c1C(=O)Nc1cnccc1N1CCS(=O)(=O)CC1` [I-N-210, 2-amino-N-(4-(1,1-dioxidothiomorpholino)pyridin-3-yl)-6-fluoropyrazolo[1,5-a]pyrimidine-3-carboxamide], for which the “Cisplatin Sensitization Assay” value is listed as “+++ (Compounds with a Cisplatin sensitization value of <0.02 μM are marked with “+++.”)”. Next, `CC1(O)CCN(c2ccncc2NC(=O)c2c(N)nn3cc(Cl)cnc23)CC1` [I-N-66, 2-amino-6-chloro-N-(4-(4-hydroxy-4-methylpiperidin-1-yl)pyridin-3-yl)pyrazolo[1,5-a]pyrimidine-3-carboxamide]: “+++ (Compounds with a Cisplatin sensitization value of <0.02 μM are marked with “+++.”)”; `Nc1nn2cc(Cl)cnc2c1C(=O)Nc1cnccc1N1CCN2CCC1CC2` [I-N-56, N-(4-(1,4-diazabicyclo[3.2.2]nonan-4-yl)pyridin-3-yl)-2-amino-6-chloropyrazolo[1,5-a]pyrimidine-3-carboxamide]: “++ (Compounds with a Cisplatin sensitization value >0.02 μM but <0.2 μM are marked with “++.”)”. Take `Nc1nn2cc(F)cnc2c1C(=O)Nc1cnccc1C1CCOC1` (centres unmarked) [I-C-75, 2-amino-6-fluoro-N-(4-(tetrahydrofuran-3-yl)pyridin-3-yl)pyrazolo[1,5-a]pyrimidine-3-carboxamide]: the “Cisplatin Sensitization Assay” value was “++ (Compounds with a Cisplatin sensitization value >0.02 μM but <0.2 μM are marked with “++.”)”.

For `CN1CCN(c2c(F)cncc2NC(=O)c2c(N)nn3cc(Cl)cnc23)CC1` [I-N-14, 2-amino-6-chloro-N-(5-fluoro-4-(4-methylpiperazin-1-yl)pyridin-3-yl)pyrazolo[1,5-a]pyrimidine-3-carboxamide], the “Cisplatin Sensitization Assay” value is listed as “+++ (Compounds with a Cisplatin sensitization value of <0.02 μM are marked with “+++.”)”.

For `CN1CCCN(C(=O)C2CCN(c3c(F)cncc3NC(=O)c3c(N)nn4cc(F)cnc34)CC2)CC1` [I-G-6, 2-amino-6-fluoro-N-(5-fluoro-4-(4-(4-methyl-1,4-diazepane-1-carbonyl)piperidin-1-yl)pyridin-3-yl)pyrazolo[1,5-a]pyrimidine-3-carboxamide], the “Cisplatin Sensitization Assay” value is recorded as “+++ (Compounds with a Cisplatin sensitization value of <0.02 μM are marked with “+++.”)”. Turning to `Nc1nn2cc(F)cnc2c1C(=O)Nc1cnccc1CN1CCCC1=O` [I-C-76, 2-amino-6-fluoro-N-(4-((2-oxopyrrolidin-1-yl)methyl)pyridin-3-yl)pyrazolo[1,5-a]pyrimidine-3-carboxamide], the “Cisplatin Sensitization Assay” value is “+ (Compounds with a Cisplatin sensitization value >0.2 μM but <5 μM are marked with “+.”)”. For `CN1CCC[C@@H]1C(=O)N1CCN(c2ccncc2NC(=O)c2c(N)nn3cc(F)cnc23)CC1` [I-N-199, (R)-2-amino-6-fluoro-N-(4-(4-(1-methylpyrrolidine-2-carbonyl)piperazin-1-yl)pyridin-3-yl)pyrazolo[1,5-a]pyrimidine-3-carboxamide] the value was “+++ (Compounds with a Cisplatin sensitization value of <0.02 μM are marked with “+++.”)”; for `Nc1nn2cc(F)cnc2c1C(=O)Nc1cncc(C2CC2)c1N1CCN(C2COC2)CC1` [I-N-32, 2-amino-N-(5-cyclopropyl-4-(4-(oxetan-3-yl)piperazin-1-yl)pyridin-3-yl)-6-fluoropyrazolo[1,5-a]pyrimidine-3-carboxamide], “++ (Compounds with a Cisplatin sensitization value >0.02 μM but <0.2 μM are marked with “++.”)”. Next, `Nc1nn2cc(Cl)cnc2c1C(=O)Nc1cnccc1OC1CCCNC1` (centres unmarked) [I-O-75, 2-amino-6-chloro-N-(4-(piperidin-3-yloxy)pyridin-3-yl)pyrazolo[1,5-a]pyrimidine-3-carboxamide]: “++ (Compounds with a Cisplatin sensitization value >0.02 μM but <0.2 μM are marked with “++.”)”; `Nc1nn2cc(F)cnc2c1C(=O)Nc1cnccc1N1CCN(C2COC2)C2CC21` (centres unmarked) [I-N-31, 2-amino-6-fluoro-N-(4-(5-(oxetan-3-yl)-2,5-diazabicyclo[4.1.0]heptan-2-yl)pyridin-3-yl)pyrazolo[1,5-a]pyrimidine-3-carboxamide]: “+ (Compounds with a Cisplatin sensitization value >0.2 μM but <5 μM are marked with “+.”)”. For `Nc1nn2cc(F)cnc2c1C(=O)Nc1cnccc1N1CCC(S(=O)(=O)N2CCC2)CC1` [I-N-271, 2-amino-N-(4-(4-(azetidin-1-ylsulfonyl)piperidin-1-yl)pyridin-3-yl)-6-fluoropyrazolo[1,5-a]pyrimidine-3-carboxamide] the value was “+++ (Compounds with a Cisplatin sensitization value of <0.02 μM are marked with “+++.”)”; for `CN1CCC(Oc2c(F)cncc2NC(=O)c2c(N)nn3cc(F)cnc23)CC1` [I-O-89, 2-amino-6-fluoro-N-(5-fluoro-4-((1-methylpiperidin-4-yl)oxy)pyridin-3-yl)pyrazolo[1,5-a]pyrimidine-3-carboxamide], “++ (Compounds with a Cisplatin sensitization value >0.02 μM but <0.2 μM are marked with “++.”)”; for `CN1CCN(c2c(F)cncc2NC(=O)c2c(N)nn3cc(C(C)(C)C#N)cnc23)CC1` [I-N-138, 2-amino-6-(2-cyanopropan-2-yl)-N-(5-fluoro-4-(4-methylpiperazin-1-yl)pyridin-3-yl)pyrazolo[1,5-a]pyrimidine-3-carboxamide], “++ (Compounds with a Cisplatin sensitization value >0.02 μM but <0.2 μM are marked with “++.”)”. As to `CN1CCN(c2ccncc2NC(=O)c2c(N)nn3cc(F)cnc23)CC12CCOCC2` [I-N-133, 2-amino-6-fluoro-N-(4-(1-methyl-9-oxa-1,4-diazaspiro[5.5]undecan-4-yl)pyridin-3-yl)pyrazolo[1,5-a]pyrimidine-3-carboxamide], the “Cisplatin Sensitization Assay” value is on record as “++ (Compounds with a Cisplatin sensitization value >0.02 μM but <0.2 μM are marked with “++.”)”. Next, `Nc1nn2cc(F)cnc2c1C(=O)Nc1cnccc1-c1ccc(C(=O)N2CCN(C3COC3)CC2)cc1F` [I-C-51, 2-amino-6-fluoro-N-(4-(2-fluoro-4-(4-(oxetan-3-yl)piperazine-1-carbonyl)phenyl)pyridin-3-yl)pyrazolo[1,5-a]pyrimidine-3-carboxamide]: “++ (Compounds with a Cisplatin sensitization value >0.02 μM but <0.2 μM are marked with “++.”)”; `CN(C)C1CCN(c2ccncc2NC(=O)c2c(N)nn3cc(Cl)cnc23)CC1` [I-N-37, 2-amino-6-chloro-N-(4-(4-(dimethylamino)piperidin-1-yl)pyridin-3-yl)pyrazolo[1,5-a]pyrimidine-3-carboxamide]: “++ (Compounds with a Cisplatin sensitization value >0.02 μM but <0.2 μM are marked with “++.”)”. Next, `Nc1nn2cc(F)cnc2c1C(=O)Nc1cnccc1-n1ccnc1C(F)(F)F` [I-N-219, 2-amino-6-fluoro-N-(4-(2-(trifluoromethyl)-1H-imidazol-1-yl)pyridin-3-yl)pyrazolo[1,5-a]pyrimidine-3-carboxamide]: “+++ (Compounds with a Cisplatin sensitization value of <0.02 μM are marked with “+++.”)”. Regarding `Nc1nn2cc(Cl)cnc2c1C(=O)Nc1cnccc1N1CCC(N2CC(F)(F)C2)CC1` [I-N-108, 2-amino-6-chloro-N-(4-(4-(3,3-difluoroazetidin-1-yl)piperidin-1-yl)pyridin-3-yl)pyrazolo[1,5-a]pyrimidine-3-carboxamide], the “Cisplatin Sensitization Assay” value is “+++ (Compounds with a Cisplatin sensitization value of <0.02 μM are marked with “+++.”)”. Next, `CN1CCN(c2ccncc2NC(=O)c2c(N)nn3cc(F)cnc23)CC1` [I-N-3, 2-amino-6-fluoro-N-(4-(4-methylpiperazin-1-yl)pyridin-3-yl)pyrazolo[1,5-a]pyrimidine-3-carboxamide]: “+++ (Compounds with a Cisplatin sensitization value of <0.02 μM are marked with “+++.”)”; `CN1CCN(C(=O)C2CCN(c3ccncc3NC(=O)c3c(N)nn4cc(F)cnc34)CC2)CC1` [I-G-1, 2-amino-6-fluoro-N-(4-(4-(4-methylpiperazine-1-carbonyl)piperidin-1-yl)pyridin-3-yl)pyrazolo[1,5-a]pyrimidine-3-carboxamide]: “+++ (Compounds with a Cisplatin sensitization value of <0.02 μM are marked with “+++.”)”; `Nc1nn2cc(F)cnc2c1C(=O)Nc1cncc(F)c1N1CCC2(CC1)COC2` [I-N-239, 2-amino-6-fluoro-N-(5-fluoro-4-(2-oxa-7-azaspiro[3.5]nonan-7-yl)pyridin-3-yl)pyrazolo[1,5-a]pyrimidine-3-carboxamide]: “+++ (Compounds with a Cisplatin sensitization value of <0.02 μM are marked with “+++.”)”. For `CN1CCC(OC2CCN(c3ccncc3NC(=O)c3c(N)nn4cc(F)cnc34)CC2)CC1` [I-N-154, 2-amino-6-fluoro-N-(4-(4-((1-methylpiperidin-4-yl)oxy)piperidin-1-yl)pyridin-3-yl)pyrazolo[1,5-a]pyrimidine-3-carboxamide] the value was “+++ (Compounds with a Cisplatin sensitization value of <0.02 μM are marked with “+++.”)”; for `CN1CCN(C2CCN(c3c(F)cncc3NC(=O)c3c(N)nn4cc(F)cnc34)CC2)C(=O)C1` [I-N-151, 2-amino-6-fluoro-N-(5-fluoro-4-(4-(4-methyl-2-oxopiperazin-1-yl)piperidin-1-yl)pyridin-3-yl)pyrazolo[1,5-a]pyrimidine-3-carboxamide], “+ (Compounds with a Cisplatin sensitization value >0.2 μM but <5 μM are marked with “+.”)”.

`Nc1nn2cc(F)cnc2c1C(=O)Nc1cnccc1N1CCC(c2nnco2)CC1` [I-N-268, N-(4-(4-(1,3,4-oxadiazol-2-yl)piperidin-1-yl)pyridin-3-yl)-2-amino-6-fluoropyrazolo[1,5-a]pyrimidine-3-carboxamide]: the “Cisplatin Sensitization Assay” value was “+++ (Compounds with a Cisplatin sensitization value of <0.02 μM are marked with “+++.”)”.
